Assay results: ChEMBL document CHEMBL1201862, “PubChem BioAssay data set” (2004)
Active and inactive are the calls of the source.

Experiments:
[1] = tested on: HeLa; assay: HeLa cell cytotoxicity, dose response, cytotoxicity control for MITF activator project, CellTiter-Glo luminescence, cherry-pick samples (AID 540259); assay type: functional, cell-based; conditions: Homo sapiens
[2] = molecular target: Heat shock protein HSP 90-alpha (Homo sapiens, UniProt P07900); assay type: functional, organism-based
[3] = Counterscreen for AddAB inhibitors: absorbance-based bacterial cell-based high throughput dose response assay for inhibitors of bacterial viability. [Related pubchem assays (depositor defined):AID435030, AID449728, AID449731, AID488942, AID488955, AID488956]; assay type: functional
[4] = control 3'UTR Renilla luciferase suppression, dose response, counter-screen for Shn3 inhibitor project, cell-based, Clone20-Shn3RL, cherry-picked (AID 624133); assay type: functional
[5] = molecular target: T1, Exodeoxyribonuclease V (Escherichia coli (strain K12), UniProt P04993+P07648+P08394); assay: E. coli RecBCD inhibitors, dose response, counter-screen for AddAB inhibitor project, absorbance, V66 E. coli, mutant T4 phage (AID 492957); assay type: functional, cell-based, Escherichia coli str. K-12 substr. MG1655
T1 sequence (P04993 whole entry): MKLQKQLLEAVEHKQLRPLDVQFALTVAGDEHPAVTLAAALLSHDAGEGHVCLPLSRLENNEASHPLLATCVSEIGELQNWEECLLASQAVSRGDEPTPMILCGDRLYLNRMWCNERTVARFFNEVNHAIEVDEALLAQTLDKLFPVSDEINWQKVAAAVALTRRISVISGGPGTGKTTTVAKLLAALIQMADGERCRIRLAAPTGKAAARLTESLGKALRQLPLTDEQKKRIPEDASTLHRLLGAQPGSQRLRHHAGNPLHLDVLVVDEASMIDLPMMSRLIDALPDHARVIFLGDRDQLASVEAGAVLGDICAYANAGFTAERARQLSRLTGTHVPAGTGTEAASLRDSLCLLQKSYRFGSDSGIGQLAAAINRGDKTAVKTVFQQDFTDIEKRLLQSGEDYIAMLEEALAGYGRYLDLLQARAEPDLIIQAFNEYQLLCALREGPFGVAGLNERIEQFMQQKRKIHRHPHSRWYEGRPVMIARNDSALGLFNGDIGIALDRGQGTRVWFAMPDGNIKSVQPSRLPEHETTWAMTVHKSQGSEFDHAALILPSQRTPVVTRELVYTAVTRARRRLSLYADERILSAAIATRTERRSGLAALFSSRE
T1 sequence (P07648 whole entry): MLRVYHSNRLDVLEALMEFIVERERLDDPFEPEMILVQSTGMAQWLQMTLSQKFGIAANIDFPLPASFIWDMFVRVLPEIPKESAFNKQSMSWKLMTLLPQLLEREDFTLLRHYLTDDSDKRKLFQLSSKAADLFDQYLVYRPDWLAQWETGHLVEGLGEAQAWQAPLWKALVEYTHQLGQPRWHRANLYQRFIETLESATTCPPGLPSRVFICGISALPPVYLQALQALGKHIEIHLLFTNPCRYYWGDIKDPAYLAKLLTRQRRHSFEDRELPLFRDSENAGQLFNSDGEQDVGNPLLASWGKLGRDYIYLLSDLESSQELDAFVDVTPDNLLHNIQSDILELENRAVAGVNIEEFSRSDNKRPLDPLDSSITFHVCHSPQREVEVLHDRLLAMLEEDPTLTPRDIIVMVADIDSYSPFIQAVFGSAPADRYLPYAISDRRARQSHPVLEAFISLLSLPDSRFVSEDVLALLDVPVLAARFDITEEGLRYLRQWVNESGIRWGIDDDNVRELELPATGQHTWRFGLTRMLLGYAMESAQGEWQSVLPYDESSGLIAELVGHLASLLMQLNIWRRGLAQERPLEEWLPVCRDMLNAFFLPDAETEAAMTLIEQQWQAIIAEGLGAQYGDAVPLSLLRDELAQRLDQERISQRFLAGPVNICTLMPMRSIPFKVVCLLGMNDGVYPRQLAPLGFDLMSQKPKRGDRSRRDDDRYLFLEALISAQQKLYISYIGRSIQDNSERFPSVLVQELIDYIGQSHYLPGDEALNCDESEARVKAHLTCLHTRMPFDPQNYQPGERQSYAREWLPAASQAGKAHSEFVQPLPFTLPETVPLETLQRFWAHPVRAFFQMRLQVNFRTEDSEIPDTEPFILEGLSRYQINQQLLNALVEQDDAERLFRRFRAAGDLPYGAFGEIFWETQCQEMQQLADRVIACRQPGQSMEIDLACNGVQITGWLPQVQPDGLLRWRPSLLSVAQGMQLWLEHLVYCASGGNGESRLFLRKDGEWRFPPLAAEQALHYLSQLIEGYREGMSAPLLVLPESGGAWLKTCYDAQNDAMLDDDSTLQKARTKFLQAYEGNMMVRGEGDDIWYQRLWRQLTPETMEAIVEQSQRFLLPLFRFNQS
T1 sequence (P08394 whole entry): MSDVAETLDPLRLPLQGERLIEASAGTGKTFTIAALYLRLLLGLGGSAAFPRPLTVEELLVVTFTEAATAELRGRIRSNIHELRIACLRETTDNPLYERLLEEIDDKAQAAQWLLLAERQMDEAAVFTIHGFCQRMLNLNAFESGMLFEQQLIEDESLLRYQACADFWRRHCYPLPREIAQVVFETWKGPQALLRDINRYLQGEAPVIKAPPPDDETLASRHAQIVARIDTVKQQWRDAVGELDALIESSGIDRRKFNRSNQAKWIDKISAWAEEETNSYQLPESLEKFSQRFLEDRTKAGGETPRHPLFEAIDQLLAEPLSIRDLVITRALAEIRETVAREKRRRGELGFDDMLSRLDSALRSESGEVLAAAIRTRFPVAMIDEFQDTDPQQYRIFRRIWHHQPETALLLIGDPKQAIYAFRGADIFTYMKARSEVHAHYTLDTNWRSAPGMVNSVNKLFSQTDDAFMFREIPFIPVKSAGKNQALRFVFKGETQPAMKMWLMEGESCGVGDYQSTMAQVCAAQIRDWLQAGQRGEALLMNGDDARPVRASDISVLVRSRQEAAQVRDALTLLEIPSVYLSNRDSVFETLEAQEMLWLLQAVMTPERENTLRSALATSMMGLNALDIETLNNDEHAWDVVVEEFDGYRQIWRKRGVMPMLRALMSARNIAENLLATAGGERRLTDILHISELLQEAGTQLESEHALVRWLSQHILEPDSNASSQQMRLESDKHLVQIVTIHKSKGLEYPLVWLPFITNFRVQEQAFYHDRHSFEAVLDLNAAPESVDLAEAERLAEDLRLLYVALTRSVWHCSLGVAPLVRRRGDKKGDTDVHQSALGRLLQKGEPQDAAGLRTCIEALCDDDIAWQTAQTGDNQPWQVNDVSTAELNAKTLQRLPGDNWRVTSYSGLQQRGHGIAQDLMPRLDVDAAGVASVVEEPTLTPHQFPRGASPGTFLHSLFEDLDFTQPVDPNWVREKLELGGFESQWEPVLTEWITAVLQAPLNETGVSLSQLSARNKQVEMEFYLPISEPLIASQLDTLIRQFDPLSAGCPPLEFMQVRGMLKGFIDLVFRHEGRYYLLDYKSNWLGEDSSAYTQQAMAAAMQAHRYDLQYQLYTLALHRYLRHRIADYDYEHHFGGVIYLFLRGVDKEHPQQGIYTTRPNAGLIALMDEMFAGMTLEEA

[6] = HepG2 cell cytotoxicity, dose response, cytotoxicity control for Shn3 inhibitor project, CellTiter-Glo, cherry-picked (AID 624134); assay type: functional, cell-based
[7] = cells; assay type: functional, cell-based
[8] = tested on: HEK293; assay: inhibitors of LMP1-driven NF-kB reporter, dose response, cell-based, HEK293, luciferase, cherry-pick (AID 588343); assay type: functional; conditions: Homo sapiens
[9] = Shn3 3'UTR reporter inhibitors, dose response, cell-based, Clone20 osteoblasts, firefly luciferase, cherry-picked (AID 624132); assay type: functional;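 note: firefly luciferase luminescence from reporter carrying the Shn3 3'UTR in osteoblasts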
[10] = cells; assay type: functional, cell-based; remark: listed apart in the source
[11] = StAR promoter reporter inhibition counter-screen, dose response, counter-screen for LRH-1 inverse agonist project, cell-based, luminescence, luciferase reporter (AID 651969); assay type: functional
[12] = molecular target: Nuclear receptor subfamily 5 group A member 2 (Homo sapiens, UniProt O00482); assay type: functional, cell-based;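 note: HEK293T cells transfected with LRH-1 and a StAR promoter luciferase reporter; potency for inhibitors that lower LRH-1 driven reporter light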
[13] = THP-1 cell cytotoxicity, dose response, cytotoxicity control for non-replicating M. tuberculosis project (AID 489025); assay type: functional
[14] = molecular target: Steroidogenic factor 1 (Homo sapiens, UniProt Q13285); assay: Counterscreen for inverse agonists of the liver receptor homolog-1 (LRH-1; NR5A2): Luminescence-based cell-based high throughput dose response assay to identify inverse agonists of the Steroidogenic Factor 1 Nuclear Receptor (SF1; NR5A1).; assay type: functional
[15] = Vero E6 cell cytotoxicity, dose response, cytotoxicity control for non-replicating M. tuberculosis project, secondary assay (AID 492998); assay type: functional, VeroE6; conditions: Vero C1008
[16] = cells; assay type: functional
[17] = tested on: HEK293; assay: cells; assay type: functional, cell-based; conditions: Homo sapiens
[18] = molecular target: Nucleotide-binding oligomerization domain-containing protein 2 (Homo sapiens, UniProt Q9HC29); assay: NOD2 signaling inhibitors, cell-based, luminescence, uHTS, HEK293 (AID 1566); assay type: functional
[19] = molecular target: Luciferin 4-monooxygenase (Photinus pyralis, UniProt P08659); assay: firefly luciferase enzyme inhibitors, dose response, biochemical, luminescence (AID 1891)
[20] = molecular target: Phospholipase A2 (Homo sapiens, UniProt P04054); assay type: functional;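 note: confirmatory dose-response counterscreen on phospholipase A2, testing hits that came from an ultra-high-throughput screen for ATG4B inhibitors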
[21] = tested on: HEK293; assay: NOD2 signaling inhibitors in MDP-stimulated cells, cell-based, uHTS, luminescence (AID 2001); assay type: functional; conditions: Homo sapiens
[22] = cytotoxicity in HEK-293T cells, dose response, cytotoxicity control for BCR NF-kB inhibitor project, luminescence, B-cell screen hits (AID 489021); assay type: functional, cell-based;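 note: HEK-293T cells carrying an NF-kB luciferase reporter; cells exposed to compound for about 14 hours before viability readout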
[23] = tested on: HEK293; assay: cells; assay type: functional, cell-based; conditions: Homo sapiens; remark: listed apart in the source
[24] = tested on: HEK293; assay: cells; assay type: functional, cell-based; conditions: Homo sapiens; remark: listed apart in the source
[25] = Luminescence Cell-Based Dose Confirmation HTS to Identify Inhibitors of Platelet Dense Granule Release. [Related pubchem assays: 1663 (Primary HTS), 1678 (Summary of Project)]; assay type: functional
[26] = tested on: HEK293; assay: NOD1 signaling inhibitors, primary screen, cell-based, luminescence, uHTS (AID 1578); assay type: functional; conditions: Homo sapiens
[27] = molecular target: T2, Cysteine protease ATG4B (Homo sapiens, UniProt Q9Y4P1); assay type: functional;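 note: Fluorescence-based dose-response confirmation assay measuring inhibition of ATG4B activity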
T2 sequence (Q9Y4P1 whole entry): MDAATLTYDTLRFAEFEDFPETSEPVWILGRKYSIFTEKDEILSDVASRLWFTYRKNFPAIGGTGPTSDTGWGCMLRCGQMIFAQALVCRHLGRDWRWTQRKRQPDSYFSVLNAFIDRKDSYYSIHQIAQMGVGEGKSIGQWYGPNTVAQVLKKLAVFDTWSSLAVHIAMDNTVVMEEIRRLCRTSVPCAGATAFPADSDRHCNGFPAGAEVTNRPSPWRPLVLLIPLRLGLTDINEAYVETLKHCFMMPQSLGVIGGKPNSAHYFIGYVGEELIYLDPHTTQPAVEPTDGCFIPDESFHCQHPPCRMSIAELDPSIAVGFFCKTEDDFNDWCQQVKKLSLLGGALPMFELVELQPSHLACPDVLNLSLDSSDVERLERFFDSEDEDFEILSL

[28] = molecular target: T3, CAAX prenyl protease 2 (Homo sapiens, UniProt Q9Y256); assay: human Rce1 protease inhibitors, dose response, biochemical, yeast membranes, quenched-peptide fluorescence, cherry-pick (AID 588849)
T3 sequence (Q9Y256 whole entry): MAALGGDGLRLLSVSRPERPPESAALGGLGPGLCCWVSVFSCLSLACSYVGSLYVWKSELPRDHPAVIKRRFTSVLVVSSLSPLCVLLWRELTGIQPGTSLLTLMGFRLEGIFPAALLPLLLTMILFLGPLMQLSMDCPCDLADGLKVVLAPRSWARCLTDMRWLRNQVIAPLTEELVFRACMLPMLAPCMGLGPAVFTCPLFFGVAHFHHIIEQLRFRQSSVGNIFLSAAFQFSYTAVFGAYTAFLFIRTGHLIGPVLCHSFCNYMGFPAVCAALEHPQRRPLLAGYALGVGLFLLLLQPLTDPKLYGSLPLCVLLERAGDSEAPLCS

[29] = molecular target: Voltage-gated inwardly rectifying potassium channel KCNH2 (Homo sapiens, UniProt Q12809); conditions: Potency;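 note: confirmatory quantitative high-throughput screen measuring inhibition of hERG channel activity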
Sequence of Voltage-gated inwardly rectifying potassium channel KCNH2 (Q12809 whole entry): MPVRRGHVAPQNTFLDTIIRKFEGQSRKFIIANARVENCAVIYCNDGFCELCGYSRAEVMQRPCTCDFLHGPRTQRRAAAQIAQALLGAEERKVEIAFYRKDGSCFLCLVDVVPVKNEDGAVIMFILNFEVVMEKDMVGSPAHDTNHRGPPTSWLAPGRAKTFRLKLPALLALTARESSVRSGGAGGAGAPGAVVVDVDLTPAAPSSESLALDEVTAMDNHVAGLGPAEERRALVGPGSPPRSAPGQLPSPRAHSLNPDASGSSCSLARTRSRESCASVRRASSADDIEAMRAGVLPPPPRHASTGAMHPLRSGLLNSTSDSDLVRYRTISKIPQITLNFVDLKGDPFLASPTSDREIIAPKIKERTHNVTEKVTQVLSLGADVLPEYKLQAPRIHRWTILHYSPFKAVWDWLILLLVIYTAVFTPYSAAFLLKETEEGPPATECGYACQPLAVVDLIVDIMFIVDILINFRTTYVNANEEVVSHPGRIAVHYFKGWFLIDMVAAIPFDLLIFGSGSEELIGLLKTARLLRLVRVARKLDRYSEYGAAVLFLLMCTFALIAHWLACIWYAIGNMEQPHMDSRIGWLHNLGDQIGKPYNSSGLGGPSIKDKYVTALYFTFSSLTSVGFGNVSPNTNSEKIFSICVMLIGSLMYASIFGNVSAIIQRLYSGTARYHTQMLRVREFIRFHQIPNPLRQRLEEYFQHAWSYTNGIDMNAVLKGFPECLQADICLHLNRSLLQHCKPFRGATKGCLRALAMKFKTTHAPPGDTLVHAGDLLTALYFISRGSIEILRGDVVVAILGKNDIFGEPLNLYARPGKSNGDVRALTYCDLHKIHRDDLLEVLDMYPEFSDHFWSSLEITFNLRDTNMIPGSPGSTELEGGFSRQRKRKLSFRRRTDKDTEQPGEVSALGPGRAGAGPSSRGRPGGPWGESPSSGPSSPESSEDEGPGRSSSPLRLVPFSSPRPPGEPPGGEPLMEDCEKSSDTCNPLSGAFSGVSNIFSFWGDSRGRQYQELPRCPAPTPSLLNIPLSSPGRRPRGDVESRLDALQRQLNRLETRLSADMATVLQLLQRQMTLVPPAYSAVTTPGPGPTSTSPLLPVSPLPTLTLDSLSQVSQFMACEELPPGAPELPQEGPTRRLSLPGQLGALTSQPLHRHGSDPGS

Sequence of Steroidogenic factor 1 (Q13285 whole entry): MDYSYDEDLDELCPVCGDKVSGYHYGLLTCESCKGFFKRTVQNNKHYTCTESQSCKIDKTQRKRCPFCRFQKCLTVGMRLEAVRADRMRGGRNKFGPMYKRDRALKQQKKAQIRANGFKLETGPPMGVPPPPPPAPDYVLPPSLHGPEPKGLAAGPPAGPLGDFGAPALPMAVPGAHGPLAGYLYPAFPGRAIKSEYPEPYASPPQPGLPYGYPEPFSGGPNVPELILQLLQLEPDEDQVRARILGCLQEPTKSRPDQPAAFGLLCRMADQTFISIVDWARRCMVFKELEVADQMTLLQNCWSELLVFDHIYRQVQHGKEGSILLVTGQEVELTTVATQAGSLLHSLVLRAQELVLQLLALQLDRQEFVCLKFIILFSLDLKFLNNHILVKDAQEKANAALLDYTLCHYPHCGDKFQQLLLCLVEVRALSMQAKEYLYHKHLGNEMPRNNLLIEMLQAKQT
Sequence of Phospholipase A2 (P04054 whole entry): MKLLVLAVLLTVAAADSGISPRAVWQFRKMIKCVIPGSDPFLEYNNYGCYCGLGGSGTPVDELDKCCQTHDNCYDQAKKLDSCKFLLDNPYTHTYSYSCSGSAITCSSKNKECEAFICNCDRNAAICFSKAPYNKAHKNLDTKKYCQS
Sequence of Luciferin 4-monooxygenase (P08659 whole entry): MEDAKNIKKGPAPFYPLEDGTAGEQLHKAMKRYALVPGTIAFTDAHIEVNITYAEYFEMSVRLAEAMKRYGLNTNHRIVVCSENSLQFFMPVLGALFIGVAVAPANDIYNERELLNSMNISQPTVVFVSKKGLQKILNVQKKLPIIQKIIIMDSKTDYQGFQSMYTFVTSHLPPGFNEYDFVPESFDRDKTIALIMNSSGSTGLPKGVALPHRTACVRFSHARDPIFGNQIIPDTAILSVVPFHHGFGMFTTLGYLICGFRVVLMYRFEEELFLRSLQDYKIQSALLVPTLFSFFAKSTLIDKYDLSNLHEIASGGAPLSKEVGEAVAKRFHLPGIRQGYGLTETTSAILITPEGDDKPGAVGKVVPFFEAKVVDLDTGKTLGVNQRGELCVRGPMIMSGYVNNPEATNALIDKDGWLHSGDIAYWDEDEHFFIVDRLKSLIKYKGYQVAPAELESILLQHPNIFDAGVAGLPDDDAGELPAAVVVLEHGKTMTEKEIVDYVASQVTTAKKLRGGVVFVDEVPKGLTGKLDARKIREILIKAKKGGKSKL
Sequence of Nuclear receptor subfamily 5 group A member 2 (O00482 whole entry): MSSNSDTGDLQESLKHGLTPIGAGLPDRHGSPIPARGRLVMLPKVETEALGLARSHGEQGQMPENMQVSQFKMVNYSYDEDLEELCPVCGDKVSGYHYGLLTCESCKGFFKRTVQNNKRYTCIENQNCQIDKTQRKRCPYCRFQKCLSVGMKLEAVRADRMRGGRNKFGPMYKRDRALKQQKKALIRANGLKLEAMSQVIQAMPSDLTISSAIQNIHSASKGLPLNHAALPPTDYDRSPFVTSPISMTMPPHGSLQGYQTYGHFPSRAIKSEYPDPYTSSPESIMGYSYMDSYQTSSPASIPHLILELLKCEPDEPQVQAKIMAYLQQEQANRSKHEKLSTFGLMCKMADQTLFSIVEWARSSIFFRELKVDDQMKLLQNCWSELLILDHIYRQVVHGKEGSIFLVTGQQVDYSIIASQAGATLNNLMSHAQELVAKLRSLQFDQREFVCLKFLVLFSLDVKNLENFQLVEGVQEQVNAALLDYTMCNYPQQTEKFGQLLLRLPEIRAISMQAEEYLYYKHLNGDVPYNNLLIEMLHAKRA
Sequence of Nucleotide-binding oligomerization domain-containing protein 2 (Q9HC29 whole entry, the tested form may be a part): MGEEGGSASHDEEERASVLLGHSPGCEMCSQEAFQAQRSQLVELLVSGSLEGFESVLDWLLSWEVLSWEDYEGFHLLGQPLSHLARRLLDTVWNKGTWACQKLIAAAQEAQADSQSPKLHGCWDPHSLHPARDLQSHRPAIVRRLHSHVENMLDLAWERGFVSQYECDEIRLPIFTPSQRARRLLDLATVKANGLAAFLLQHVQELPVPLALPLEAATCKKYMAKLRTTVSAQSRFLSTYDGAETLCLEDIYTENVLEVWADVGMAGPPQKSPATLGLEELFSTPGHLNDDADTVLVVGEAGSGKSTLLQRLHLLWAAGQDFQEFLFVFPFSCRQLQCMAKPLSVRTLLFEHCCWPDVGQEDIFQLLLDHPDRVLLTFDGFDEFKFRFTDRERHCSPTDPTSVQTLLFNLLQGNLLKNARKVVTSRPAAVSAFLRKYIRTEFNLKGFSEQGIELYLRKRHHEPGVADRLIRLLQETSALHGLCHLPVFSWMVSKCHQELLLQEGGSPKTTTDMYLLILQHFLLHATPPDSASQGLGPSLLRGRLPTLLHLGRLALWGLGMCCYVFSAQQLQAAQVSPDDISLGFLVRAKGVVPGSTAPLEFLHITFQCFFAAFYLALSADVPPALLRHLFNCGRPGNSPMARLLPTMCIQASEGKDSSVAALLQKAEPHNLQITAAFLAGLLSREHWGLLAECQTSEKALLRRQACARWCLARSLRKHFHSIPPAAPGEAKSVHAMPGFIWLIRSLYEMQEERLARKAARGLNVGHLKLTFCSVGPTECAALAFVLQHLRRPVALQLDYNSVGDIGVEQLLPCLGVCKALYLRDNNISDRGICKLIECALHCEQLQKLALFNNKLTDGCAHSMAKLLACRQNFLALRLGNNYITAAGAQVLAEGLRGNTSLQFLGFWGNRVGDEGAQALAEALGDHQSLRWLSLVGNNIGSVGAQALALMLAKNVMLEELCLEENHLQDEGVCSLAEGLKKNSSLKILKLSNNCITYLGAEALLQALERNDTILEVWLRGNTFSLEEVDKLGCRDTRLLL

COc1ccc(NC2=Nc3ccccc3CC2)cc1
AC50 [1]: > 350 µM (inactive)

CC(C)C(=O)NC(c1cccc([N+](=O)[O-])c1)c1ccc2cccnc2c1O (centres undefined)
AC50 [2]: 2.7 µM (active)
IC50 [3]: > 119 µM (inactive)
AC50 [4]: 0.924 µM (active)
IC50 [5]: > 119 µM (inactive)
AC50 [6]: 2.17 µM (active)
EC50 [7]: > 350 µM (not active)
AC50 [8]: 6.46 µM (active)
AC50 [9]: 2.57 µM (active)
EC50 [10]: 6.78 µM (active)

Cc1onc(-c2ccccc2)c1C(=O)ON=C(N)c1ccc([N+](=O)[O-])o1
IC50 [11]: 35.9 µM (inactive)
IC50 [12]: 11.1 µM (inactive)
IC50 [3]: 69.7 µM (inactive)
CC50 [13]: > 40 µM (active)
IC50 [14]: 2.03 µM (active)
IC50 [5]: > 119 µM (inactive)
CC50 [15]: > 20 µM (active)
IC50 [16]: 6.29 µM (active)

O=C(CCCN1C(=O)/C(=C/c2ccccc2Cl)SC1=S)NNC(=O)c1ccccc1
IC50 [17]: > 20 µM (inactive)
EC50 [18]: > 20 µM (inactive)
EC50 [19]: > 112 µM (not active)
IC50 [20]: 5.28 µM (active)
IC50 [21]: 3.04 µM (active)
IC50 [22]: > 80 µM (inactive)
IC50 [23]: > 20 µM (inactive)
IC50 [24]: 3.13 µM (active)
EC50 [25]: > 112 µM (not active)
EC50 [26]: > 20 µM (inactive)
IC50 [27]: 16.6 µM (active)

Cc1ccc(S(=O)(=O)Nc2ccccc2C(=O)NCC2CCCO2)cc1 (centres undefined)
AC50 [28]: 44.8 µM (active)

CSCc1ccc(C(=O)Nc2cc(C)cc(C)c2)cc1
AC50 [1]: 161 µM (active)

Cc1ccccc1S(=O)(=O)NC(=Nc1nc2ccccc2s1)c1ccccc1
AC50 [1]: 263 µM (active)

COc1ccc2c3c1O[C@H]1C(=O)CC[C@@]4(O)C(C2)N(CC2CC2)CCC314 (some centres undefined)
AC50 [29]: 17.8 µM (inconclusive)

CN1[C@@H]2CC[C@H]1C[C@@H](OC(c1ccccc1)c1ccccc1N)C2 (some centres undefined) [AMINOBENZTROPINE]
AC50 [29]: 11.2 µM (inconclusive)
